Where two headings read alike, the source gives them in different places.
Legend:
recombinant human PDE5 = target: T1, recombinant human PDE5 (Homo sapiens, UniProt O76074); test: IMAP fluorescence polarization phosphodiesterase assay (TAMRA-cGMP substrate); assay type: biochemical; conditions: for inhibition at 10 µM: read-out: %PDE5 inhibition at 10 μM; for IC50: 10 concentrations, at least two replicates per concentration, read-out: PDE5 inhibition IC50; for PDE5 inhibition, result in words: SAR discussion
T1 construct: purchased BPS Biosciences, San Diego, CA
Method: PDE activity was measured using a modification of the IMAP fluorescence polarization phosphodiesterase assay from Molecular Devices. The assay was modified to use tetramethylrhodamine- (TAMRA-) cGMP as substrate. PDE hydrolysis of the fluorescent labeled substrate allows it to bind the IMAP binding reagent, which results in increased FP. […] The assays were performed in 96-well microtiter plates using a reaction buffer containing 10 mM Tris-HCl (pH 7.2), 10 mM MgCl2, 0.05% NaN3, and 0.1% phosphate-free BSA as the carrier. Each well contained 20 μL of recombinant enzyme (5 units//mL, BPS Biosciences, San Diego, CA) and 10 μL test agent. The reaction was initiated by the addition of 10 μL of a substrate solution containing 50 nM TAMRA-cGMP. After incubating at room temperature for 60 minutes, the reaction was terminated by adding 120 μL of binding solution. FP was measured by a Perkin Elmer Envision plate reader.
Dose response curves were analyzed using Prism 4 software (GraphPad) to calculate IC50 values using a four-parameter logistic equation. All in vitro experiments involved dose-response analysis were repeated at least twice to confirm reproducibility of IC50 values.

[1] = screening dose 10 μM, triplicate

inhibition at 10 µM (recombinant human PDE5; [1])	melting point	IC50 (recombinant human PDE5)	PDE5 inhibition, result in words (recombinant human PDE5)	Structure (SMILES)	inhibition at 10 µM (recombinant human PDE5)
23%	188 to 190 °C			COc1ccc([C@H]2c3[nH]c4ccccc4c3C[C@@H]3C(=O)N(C)C(=S)N23)c(OC)c1 [Compound 18, (5S,11aR)-2-Methyl-1-oxo-5-(2,4-dimethoxyphenyl)-5,6,11,11a-tetrahydro-1-H-imidazo[5,1-1,6]pyrido[3,4-b]indole-3(2H)-thione]	
63%	134 to 136 °C			COc1ccc([C@@H]2c3[nH]c4ccccc4c3C[C@@H]3C(=O)N(c4ccc(Cl)cc4)C(=O)N23)c(OC)c1 [Compound 13, (5R,11aR)-2-(P-Chlorophenyl)-5-(2,4-dimethoxyphenyl)-5,6,11,11a-tetrahydro-1H-imidazo[5,1-6,1]pyrido[3,4-b]indole-1,3-dione]	
63%	212 to 215 °C			COc1ccc([C@@H]2c3[nH]c4ccccc4c3C[C@H]3C(=O)N(c4ccc(Cl)cc4)C(=O)N23)c(OC)c1 [Compound 16, (5R,11aS)-2-(P-Chlorophenyl)-5-(2,4-dimethoxyphenyl)-5,6,11,11a-tetrahydro-1-H-imidazo[5,1-6,1]pyrido[3,4-b]indole-1,3-dione]	
29%	188 to 191 °C			COc1ccc([C@@H]2c3[nH]c4ccccc4c3C[C@H]3C(=O)N(C)C(=S)N23)c(OC)c1 [Compound 17, (5R,11aS)-2-Methyl-1-oxo-5-(2,4-dimethoxyphenyl)-5,6,11,11a-tetrahydro-1H-imidazo[5,1-6,1]pyrido[3,4-b]indole-3(2H)-thione]	
87%	224 to 227 °C	560 nM		C=CCN1C(=O)[C@@H]2Cc3c([nH]c4ccccc34)[C@@H](c3ccc(OC)cc3OC)N2C1=S [Compound 19, (5R,11aS)-2-Allyl-1-oxo-5-(2,4-dimethoxyphenyl)-5,6,11,11a-tetrahydro-1H-imidazo[5,1-1,6]pyrido[3,4-b]indole-3(2H)-thione]	
87%	193 to 195 °C	550 nM	active PDE5 inhibitors	COc1ccc([C@@H]2c3[nH]c4ccccc4c3C[C@H]3C(=O)N(C(C)(C)C)C(=O)N23)c(OC)c1 [Compound 12, (5R,11aS)-2-Tertiarybutyl-5-(2,4-dimethoxyphenyl)-5,6,11,11a-tetrahydro-1-H-imidazo[5,1-6,1]pyrido[3,4-b]indole-1,3-dione]	
60%	214 to 216 °C			COc1ccc([C@H]2c3[nH]c4ccccc4c3C[C@@H]3C(=O)N(c4ccc(Cl)cc4)C(=O)N23)c(OC)c1 [Compound 14, (5S,11aR)-2-(P-Chlorophenyl)-5-(2,4-dimethoxyphenyl)-5,6,11,11a-tetrahydro-1-H-imidazo[5,1-6,1]pyrido[3,4-b]indole-1,3-dione]	
35%	135 to 138 °C			COc1ccc([C@H]2c3[nH]c4ccccc4c3C[C@H]3C(=O)N(c4ccc(Cl)cc4)C(=O)N23)c(OC)c1 [Compound 15, (5S,11aS)-2-(P-Chlorophenyl)-5-(2,4-dimethoxyphenyl)-5,6,11,11a-tetrahydro-1-H-imidazo[5,1-6,1]pyrido[3,4-b]indole-1,3-dione]	
58%	224 to 227 °C			C=CCN1C(=O)[C@H]2Cc3c([nH]c4ccccc34)[C@H](c3ccc(OC)cc3OC)N2C1=S [Compound 20, (5S,11aR)-2-Allyl-1-oxo-5-(2,4-dimethoxyphenyl)-5,6,11,11a-tetrahydro-1H-imidazo[5,1-6,6,1]pyrido[3,4-b]indole-3(2H)-thione]	

Further lines, the compound ahead of its results:

Structure (SMILES)	inhibition at 10 µM (recombinant human PDE5; [1])	melting point	IC50 (recombinant human PDE5)	PDE5 inhibition, result in words (recombinant human PDE5)	inhibition at 10 µM (recombinant human PDE5)
CN1CC(=O)N2[C@H](c3ccc4c(c3)OCO4)c3[nH]c4ccccc4c3C[C@@H]2C1=O [Tadalafil, tadalafil, reference compound]					99%
COc1ccc([C@@H]2c3[nH]c4ccccc4c3C[C@@H]3C(=O)N(C(C)(C)C)C(=O)N23)c(OC)c1 [Compound 9, (5R,11aR)-2-Tertiarybutyl-5-(2,4-dimethoxyphenyl)-5,6,11,11a-tetrahydro-1-H-imidazo[5,1-6,1]pyrido[3,4-b]indole-1,3-dione]	83%	108 to 110 °C	2400 nM	active PDE5 inhibitors	
COc1ccc([C@H]2c3[nH]c4ccccc4c3C[C@@H]3C(=O)N(C(C)(C)C)C(=O)N23)c(OC)c1 [Compound 10, (5S,11aR)-2-Tertiarybutyl-5-(2,4-dimethoxyphenyl)-5,6,11,11a-tetrahydro-1-H-imidazo[5,1-6,1]pyrido[3,4-b]indole-1,3-dione]	68%	191 to 193 °C			
COC(=O)[C@H]1Cc2c([nH]c3ccccc23)[C@@H](c2ccc(OC)cc2OC)N1 [Compound 1, (1R, 3R) Methyl-1-(2,4-dimethoxyphenyl)-2,3,4,9-tetrahydro-1-H-pyrido[3,4-b]indole-3-carboxylate]	77%	86 to 88 °C	2500 nM		
CCN1C(=O)[C@H]2Cc3c([nH]c4ccccc34)[C@H](c3ccc(OC)cc3OC)N2C1=O [Compound 6, (5S,11aR)-2-Ethyl-5-(2,4-dimethoxyphenyl)-5,6,11,11a-tetrahydro-1-H-imidazo[5,1-6,1]pyrido[3,4-b]indole-1,3-dione]	88%	190 to 193 °C	720 nM	active	
CCN1C(=O)[C@@H]2Cc3c([nH]c4ccccc34)[C@H](c3ccc(OC)cc3OC)N2C1=O [Compound 7, (5S,11aS)-2-Ethyl-5-(2,4-dimethoxyphenyl)-5,6,11,11a-tetrahydro-1-H-imidazo[5,1-6,1]pyrido[3,4-b]indole-1,3-dione]	54%	217 to 220 °C			
COc1ccc([C@H]2c3[nH]c4ccccc4c3C[C@H]3C(=O)N(C(C)(C)C)C(=O)N23)c(OC)c1 [Compound 11, (5S,11aS)-2-Tertiarybutyl-5-(2,4-dimethoxyphenyl)-5,6,11,11a-tetrahydro-1-H-imidazo[5,1-6,1]pyrido[3,4-b]indole-1,3-dione]	46%	103 to 106 °C			
CCN1C(=O)[C@@H]2Cc3c([nH]c4ccccc34)[C@@H](c3ccc(OC)cc3OC)N2C1=O [Compound 8, (5R,11aS)-2-Ethyl-5-(2,4-dimethoxyphenyl)-5,6,11,11a-tetrahydro-1-H-imidazo[5,1-6,1]pyrido[3,4-b]indole-1,3-dione]	97%	192 to 195 °C	360 nM	active PDE5 inhibitors	
COC(=O)[C@H]1Cc2c([nH]c3ccccc23)[C@H](c2ccc(OC)cc2OC)N1 [Compound 2, (1S,3R) Methyl-1-(2,4-dimethoxyphenyl)-2,3,4,9-tetrahydro-1-H-pyrido[3,4-b]indole-3-carboxylate]	63%	146 to 147 °C			
COC(=O)[C@@H]1Cc2c([nH]c3ccccc23)[C@H](c2ccc(OC)cc2OC)N1 [Compound 3, (1S,3S) Methyl-1-(2,4-dimethoxyphenyl)-2,3,4,9-tetrahydro-1-H-pyrido[3,4-b]indole-3-carboxylate]	55%	88 to 90 °C			
COC(=O)[C@@H]1Cc2c([nH]c3ccccc23)[C@@H](c2ccc(OC)cc2OC)N1 [Compound 4, (1R,3S) Methyl-1-(2,4-dimethoxyphenyl)-2,3,4,9-tetrahydro-1-H-pyrido[3,4-b]indole-3-carboxylate]	75%	148 to 150 °C	6400 nM		
CCN1C(=O)[C@H]2Cc3c([nH]c4ccccc34)[C@@H](c3ccc(OC)cc3OC)N2C1=O [Compound 5, (5R,11aR)-2-Ethyl-5-(2,4-dimethoxyphenyl)-5,6,11,11a-tetrahydro-1-H-imidazo[5,1-6,1]pyrido[3,4-b]indole-1,3-dione]	87%	216 to 218 °C	360 nM	active PDE5 inhibitors	
